Laboratory results from patent publication US4918012A (Kyowa Hakko Kogyo Co., Ltd., priority 1986, dated 1990).

Columns and labels:
strain CA28-50A = experiment: Effect of compound added to growth medium on carnitinamide hydrolase formation (Example 9); assay type: cell-based, Pseudomonas sp. CA28-50A; settings: 26° C.; for Conversion Rate of L-carnitinamide into L-carnitine: cells reacted with 10% DL-carnitinamide, 96 hours; for Growth (optical density at 660, 1.00 cm, 20 times dilution): strain CA28-50A, 3 days
Experimental: In a medium consisting of 1% glucose, 0.5% peptone, 0.75% K2 HPO4, 0.25% KH2 PO4, 0.01% MgSO4.7H2 O, 0.001% FeSO4.7H2 O and one of the compounds shown in Table 6 below and the balance water (pH 7.2) was inoculated the strain CA28-50A and shake cultured at 26° C. for 3 days. Cells collected from the culture broth by centrifugation were suspended in a reaction solution containing 10% DL-carnitinamide in the same density as that in the medium for growth culture, and the resulting suspension was allowed to stand at 26° C. for 96 hours for the reaction.

[1] = test system: L-carnitinamide hydrolase; experiment: Inhibitors of L-carnitinamide hydrolase (metal ions, EDTA, 2-mercaptoethanol); assay type: biochemical, Pseudomonas sp.
Excerpt: The determination of the activity of carnitinamide hydrolase can be carried out by measuring the amount of carnitine generated by, for example, Pearson's method (D. J. Pearson et al., Method in Enzymology, Vol. 14, 612 (1969)). When there is no inhibitory substances present, the determination of the activity of the enzyme can also be carried out by measuring the amount of ammonia generated by the reaction.

Inhibition of the enzyme ([1]; at 10 mM)	Inhibition of the enzyme ([1]; concentration of 1 mM)	Compound	other results
do not show inhibition	do not show inhibition	OCCS [2-mercaptoethanol]	
remarkable inhibition	slight inhibition	[Ag+] [Ag ion]	
	no inhibition	[Mg+2] [Mg]	
	no inhibition	[Mn+2] [Mn]	

The next lines start with the molecule.

Compound	Inhibition of the enzyme ([1]; at 10 mM)	Inhibition of the enzyme ([1]; concentration of 1 mM)	other results
C[N+](C)(C)CC(O)CC(N)=O (racemic) [DL-Carnitinamide]			Conversion Rate of L-carnitinamide into L-carnitine (strain CA28-50A; compound 0.5% in growth medium): 88.7%; Growth (optical density at 660, 1.00 cm, 20 times dilution) (strain CA28-50A; compound 0.5% in growth medium): 0.27
C[N+](C)(C)CC(O)CC(=O)[O-] (racemic) [DL-Carnitine]			Conversion Rate of L-carnitinamide into L-carnitine (strain CA28-50A; compound 0.5% in growth medium): 90.0%; Growth (optical density at 660, 1.00 cm, 20 times dilution) (strain CA28-50A; compound 0.5% in growth medium): 0.27
[Co+2] [Co]		no inhibition	
O=C(O)CN(CCN(CC(=O)O)CC(=O)O)CC(=O)O [EDTA]	do not show inhibition	do not show inhibition	
Cl.N [NH4 Cl]			Conversion Rate of L-carnitinamide into L-carnitine (strain CA28-50A; compound 0.1% in growth medium): 2.9%; Growth (optical density at 660, 1.00 cm, 20 times dilution) (strain CA28-50A; compound 0.1% in growth medium): 0.23
[Ni+2] [Ni]	slight inhibition	no inhibition	
[Zn+2] [Zn]		no inhibition	
C[N+](C)(C)CCCC(=O)[O-] [γ-Butyrobetaine]			Conversion Rate of L-carnitinamide into L-carnitine (strain CA28-50A; compound 0.5% in growth medium): 12.3%; Growth (optical density at 660, 1.00 cm, 20 times dilution) (strain CA28-50A; compound 0.5% in growth medium): 0.26
